Assay results: ChEMBL document CHEMBL3861969, “Acredinone C and the Effect of Acredinones on Osteoclastogenic and Osteoblastogenic Activity” (J Nat Prod, 2016)
Active and inactive are the calls of the source. The rule behind the calls is not given here.

Assays:
[1] = Inhibition of RANKL-induced c-Fos expression in mouse BMDM cells assessed as ratio of c-Fos to actin at 10 uM preincubated with cells followed RANKL/M-CSF addition measured after 1 day by Western blot analysis (reference value: 6.4); type: functional
BMDM [2] = experiment: Inhibition of RANKL-induced NFATc1 mRNA expression in mouse BMDM cells at 10 uM preincubated with cells followed by RANKL addition measured after 2 days by real-time PCR analysis; type: functional, cell-based
BMDM [3] = experiment: Inhibition of RANKL-induced c-Src mRNA expression in mouse BMDM cells at 10 uM preincubated with cells followed by RANKL addition measured after 2 days by real-time PCR analysis; type: functional, cell-based
[4] = Inhibition of RANKL-induced NFATc1 expression in mouse BMDM cells assessed as ratio of NFATc1 to actin at 10 uM preincubated with cells followed RANKL/M-CSF addition measured after 1day by Western blot analysis (reference value: 281); type: functional
[5] = biological target: Mitogen-activated protein kinase 8 (Mus musculus) (UniProt Q91Y86); experiment: Inhibition of RANKL-induced JNK1 phosphorylation in mouse BMDM cells assessed as ratio of phosphorylated JNK1 to JNK1 at 10 uM preincubated for 5 mins followed RANKL/M-CSF addition for 5 mins by Western blot analysis (reference value: 3.7); type: cell-based
Mus musculus [6] = organism: Mus musculus; experiment: Cytotoxicity against mouse C2C12 cells assessed as reduction cell viability after 3 days in presence of BMP2 by CCK-8 assay; type: toxicity, cell-based; conditions: c2c12, 72 h
[7] = biological target: Mitogen-activated protein kinase 9 (Mus musculus) (UniProt Q9WTU6); experiment: Inhibition of RANKL-induced JNK2 phosphorylation in mouse BMDM cells assessed as ratio of phosphorylated JNK2 to JNK2 at 10 uM preincubated for 5 mins followed RANKL/M-CSF addition for 5 mins by Western blot analysis (reference value: 5.2); type: cell-based
[8] = biological target: MAP kinase p38 (Mus musculus) (UniProt P47811+O08911+Q9WUI1+Q9Z1B7); experiment: Inhibition of RANKL-induced p38 phosphorylation in mouse BMDM cells assessed as ratio of phosphorylated p38 to p38 at 10 uM preincubated for 5 mins followed RANKL/M-CSF addition for 5 mins by Western blot analysis (reference value: 24.7); type: cell-based
C2C12 = experiment: Induction of BMP2-induced osteoblast differentiation in mouse C2C12 cells assessed as increase in ALP mRNA expression at 10 uM preincubated with cells followed by BMP2 addition measured after 3 days by real-time PCR analysis; type: functional, cell-based
BMDM [9] = experiment: Inhibition of RANKL-induced TRAP mRNA expression in mouse BMDM cells at 10 uM preincubated with cells followed by RANKL addition measured after 2 days by real-time PCR analysis; type: functional, cell-based
[10] = biological target: RAC-alpha serine/threonine-protein kinase (Mus musculus) (UniProt P31750); experiment: Inhibition of RANKL-induced AKT phosphorylation in mouse BMDM cells assessed as ratio of phosphorylated AKT to AKT at 10 uM preincubated for 5 mins followed RANKL/M-CSF addition for 5 mins by Western blot analysis (reference value: 2.1); type: cell-based
BMDM [11] = experiment: Inhibition of RANKL-induced mouse BMDM cell differentiation assessed as TRAP-positive MNCs at 0.1 to 10 uM preincubated for 5 mins followed by RANKL/M-CSF addition measured after 4 days by TRAP-staining based assay; type: functional
BMDM [12] = experiment: Inhibition of RANKL-induced mouse BMDM cell differentiation assessed as TRAP-positive MNCs at 0.1 to 30 uM preincubated for 5 mins followed by RANKL/M-CSF addition measured after 4 days by TRAP-staining based assay; type: functional
[13] = biological target: Mitogen-activated protein kinase 1 (Mus musculus) (UniProt P63085); experiment: Inhibition of RANKL-induced ERK2 phosphorylation in mouse BMDM cells assessed as ratio of phosphorylated ERK2 to ERK2 at 10 uM preincubated for 5 mins followed RANKL/M-CSF addition for 5 mins by Western blot analysis (reference value: 2.6); type: cell-based
[14] = biological target: Mitogen-activated protein kinase 3 (Mus musculus) (UniProt Q63844); experiment: Inhibition of RANKL-induced ERK1 phosphorylation in mouse BMDM cells assessed as ratio of phosphorylated ERK1 to ERK1 at 10 uM preincubated for 5 mins followed RANKL/M-CSF addition for 5 mins by Western blot analysis (reference value: 2.9); type: cell-based
[15] = biological target: T1, NF-kappa-B inhibitor alpha (Mus musculus) (UniProt Q9Z1E3); experiment: Inhibition of RANKL-induced IkBalpha phosphorylation in mouse BMDM cells at 10 uM preincubated for 5 mins followed RANKL/M-CSF addition for 5 mins by Western blot analysis; type: cell-based
T1 sequence (whole entry): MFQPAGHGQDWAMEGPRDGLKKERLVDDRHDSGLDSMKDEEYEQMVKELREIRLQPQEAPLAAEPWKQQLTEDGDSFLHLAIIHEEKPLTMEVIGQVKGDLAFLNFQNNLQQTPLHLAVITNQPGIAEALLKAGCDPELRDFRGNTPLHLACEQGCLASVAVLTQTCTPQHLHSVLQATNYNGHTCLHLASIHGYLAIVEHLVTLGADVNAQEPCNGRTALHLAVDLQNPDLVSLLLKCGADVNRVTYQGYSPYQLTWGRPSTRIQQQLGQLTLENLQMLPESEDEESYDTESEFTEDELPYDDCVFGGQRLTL

BMDM [16] = experiment: Inhibition of RANKL-induced cathespin K mRNA expression in mouse BMDM cells at 10 uM preincubated with cells followed by RANKL addition measured after 2 days by real-time PCR analysis; type: functional, cell-based
BMDM [17] = experiment: Inhibition of RANKL-induced DC-STAMP mRNA expression in mouse BMDM cells at 10 uM preincubated with cells followed by RANKL addition measured after 2 days by real-time PCR analysis; type: functional, cell-based
Mus musculus [18] = organism: Mus musculus; experiment: Cytotoxicity against mouse BMDM cells assessed as reduction in cell viability up to 10 uM after 3 days in presence of M-CSF by CCK-8 assay; type: toxicity, cell-based; conditions: 72 h
Osteoclast = experiment: Inhibition of RANKL-induced mouse BMDM cell differentiation assessed as reduction in TRAP-positive multi-nucleated osteoclast cells preincubated for 5 mins followed by RANKL/M-CSF addition measured after 4 days by light microscopic analysis; type: functional, cell-based
BMDM [19] = experiment: Inhibition of RANKL-induced OSCAR mRNA expression in mouse BMDM cells at 10 uM preincubated with cells followed by RANKL addition measured after 2 days by real-time PCR analysis; type: functional, cell-based
BMDM [20] = experiment: Inhibition of RANKL-induced mouse BMDM cell differentiation assessed as reduction in TRAP activity at 0.1 to 30 uM using p-nitrophenyl phosphate as substrate preincubated for 5 mins followed by RANKL/M-CSF addition measured after 4 days; type: functional, cell-based
Mus musculus [21] = organism: Mus musculus; experiment: Cytotoxicity against mouse BMDM cells assessed as reduction in cell viability at 30 uM after 3 days in presence of M-CSF by CCK-8 assay; type: toxicity, cell-based; conditions: 72 h

Sequence of Mitogen-activated protein kinase 8 (Mus musculus) (Q91Y86 whole entry): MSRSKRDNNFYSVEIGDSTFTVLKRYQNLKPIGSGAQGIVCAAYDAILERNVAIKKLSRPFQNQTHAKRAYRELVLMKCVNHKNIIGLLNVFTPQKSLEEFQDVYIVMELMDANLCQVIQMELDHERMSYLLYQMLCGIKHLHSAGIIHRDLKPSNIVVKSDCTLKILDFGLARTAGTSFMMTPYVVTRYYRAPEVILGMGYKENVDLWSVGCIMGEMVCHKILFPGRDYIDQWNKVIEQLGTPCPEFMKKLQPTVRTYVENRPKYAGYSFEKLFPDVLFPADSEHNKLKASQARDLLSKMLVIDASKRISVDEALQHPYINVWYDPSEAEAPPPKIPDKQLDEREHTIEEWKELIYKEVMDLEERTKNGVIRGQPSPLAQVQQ
Sequence of Mitogen-activated protein kinase 1 (Mus musculus) (P63085 whole entry): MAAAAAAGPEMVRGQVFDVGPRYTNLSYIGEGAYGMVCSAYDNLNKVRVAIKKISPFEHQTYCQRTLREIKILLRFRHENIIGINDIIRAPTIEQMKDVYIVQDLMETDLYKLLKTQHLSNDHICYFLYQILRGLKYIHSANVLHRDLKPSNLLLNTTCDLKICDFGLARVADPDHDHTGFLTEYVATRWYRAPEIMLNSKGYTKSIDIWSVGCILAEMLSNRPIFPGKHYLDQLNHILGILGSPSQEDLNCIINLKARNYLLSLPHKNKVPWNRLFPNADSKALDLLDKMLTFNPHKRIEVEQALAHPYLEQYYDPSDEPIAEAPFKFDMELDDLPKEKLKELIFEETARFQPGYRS
Sequence of Mitogen-activated protein kinase 9 (Mus musculus) (Q9WTU6 whole entry): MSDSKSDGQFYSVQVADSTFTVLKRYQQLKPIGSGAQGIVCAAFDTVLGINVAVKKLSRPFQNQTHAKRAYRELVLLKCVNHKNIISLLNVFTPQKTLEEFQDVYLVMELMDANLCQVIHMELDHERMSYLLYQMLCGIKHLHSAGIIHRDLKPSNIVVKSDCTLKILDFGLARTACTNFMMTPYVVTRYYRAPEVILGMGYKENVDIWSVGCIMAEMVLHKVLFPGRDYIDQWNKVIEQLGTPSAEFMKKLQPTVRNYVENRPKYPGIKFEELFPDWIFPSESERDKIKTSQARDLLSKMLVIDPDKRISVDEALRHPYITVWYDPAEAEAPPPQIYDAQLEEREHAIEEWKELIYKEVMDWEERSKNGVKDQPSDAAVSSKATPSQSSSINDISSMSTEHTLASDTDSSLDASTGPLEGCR
Sequence of RAC-alpha serine/threonine-protein kinase (Mus musculus) (P31750 whole entry): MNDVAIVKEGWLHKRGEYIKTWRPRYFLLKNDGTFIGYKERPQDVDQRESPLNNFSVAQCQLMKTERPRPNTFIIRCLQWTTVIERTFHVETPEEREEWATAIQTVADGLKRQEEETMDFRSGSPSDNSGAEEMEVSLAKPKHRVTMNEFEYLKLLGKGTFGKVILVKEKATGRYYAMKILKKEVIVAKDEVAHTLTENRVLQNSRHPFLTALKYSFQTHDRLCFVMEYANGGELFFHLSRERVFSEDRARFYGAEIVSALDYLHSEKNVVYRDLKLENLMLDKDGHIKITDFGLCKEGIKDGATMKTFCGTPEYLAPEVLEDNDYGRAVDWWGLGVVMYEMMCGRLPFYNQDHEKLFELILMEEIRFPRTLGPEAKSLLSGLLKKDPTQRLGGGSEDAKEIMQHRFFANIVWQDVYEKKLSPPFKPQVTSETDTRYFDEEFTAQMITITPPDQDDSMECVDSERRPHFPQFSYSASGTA
Sequence of Mitogen-activated protein kinase 3 (Mus musculus) (Q63844 whole entry): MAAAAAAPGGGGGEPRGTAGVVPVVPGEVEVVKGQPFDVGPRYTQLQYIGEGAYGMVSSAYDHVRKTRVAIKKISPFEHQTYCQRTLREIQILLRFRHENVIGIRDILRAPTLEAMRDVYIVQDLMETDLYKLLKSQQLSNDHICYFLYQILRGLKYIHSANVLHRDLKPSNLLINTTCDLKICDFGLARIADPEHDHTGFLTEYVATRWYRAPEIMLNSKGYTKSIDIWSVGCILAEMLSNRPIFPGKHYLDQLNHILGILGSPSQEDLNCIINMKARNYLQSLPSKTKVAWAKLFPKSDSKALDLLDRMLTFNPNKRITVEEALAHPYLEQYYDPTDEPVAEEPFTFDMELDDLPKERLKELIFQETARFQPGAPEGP

fold change (FC) [5] | fold change (FC) [7] | fold change (FC) [8] | fold change (FC) [10] | fold change (FC) [13] | fold change (FC) [14] | inhibition [15] | Compound | fold change (FC) [1] | inhibition (BMDM [2]) | inhibition (BMDM [3]) | fold change (FC) [4] | Activity (Mus musculus [6]) | Activity (C2C12) | inhibition (BMDM [9]) | inhibition (BMDM [11]) | inhibition (BMDM [12]) | inhibition (BMDM [16]) | inhibition (BMDM [17]) | Activity (Mus musculus [18]) | inhibition (Osteoclast) | other results
2.2 | 3.7 | 8.2 | 1.7 | 2.6 | 3.3 | Active | COc1cccc(OC)c1C(=O)c1c(O)cc(C)c(OC)c1C(=O)Cc1c(OC)c(C)cc2oc3cccc(OC)c3c(=O)c12 | 2.4 | Active | Active | 85 | Non-Toxic | Active | Active | Active | Active | Active | Active | Non-Toxic | Dose-dependent effect | inhibition (BMDM [19]): Active; inhibition (BMDM [20]): Active
2.7 | 4.2 | 20.2 | 1.1 | 1.7 | 2.1 | Active | COc1cccc(OC)c1C(=O)c1c(O)cc(C)c(OC)c1CC(=O)c1c(OC)c(C)cc(O)c1C(=O)c1c(OC)cccc1OC | 3.5 | Active | Active | 124 | Non-Toxic | Active | Active | Active | Active | Active | Active | Non-Toxic | Dose-dependent effect | Activity (Mus musculus [21]): Toxic; inhibition (BMDM [19]): Active; inhibition (BMDM [20]): Active
